Measurements as given in US20260060961A1, “SUBSTITUTED HETEROCYCLES AS RAS INHIBITORS” (Jazz Pharmaceuticals Ireland Limited, priority 2022, published 2026).

Each compound was assayed against Recombinant human KRAS protein containing the G12C amino acid substitution (Homo sapiens (Human), UniProt P01116, G12C) (assay: HTRF nucleotide exchange assay, KRAS G12C). Conditions: 180 minute incubation with compound at room temperature; at least two independent replicates; read-out: KRAS G12C HTRF NEA IC50.
Recombinant human KRAS protein containing the G12C amino acid substitution, sequence (P01116 other isoform, or with tags, fused parts or gaps G12C): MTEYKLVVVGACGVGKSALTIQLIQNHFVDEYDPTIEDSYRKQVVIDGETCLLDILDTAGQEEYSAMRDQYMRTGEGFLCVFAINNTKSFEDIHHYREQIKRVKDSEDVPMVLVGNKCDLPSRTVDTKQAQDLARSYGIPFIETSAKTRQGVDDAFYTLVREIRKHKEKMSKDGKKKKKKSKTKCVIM
Assay type: biochemical
Method: The capacity of compounds to bind KRAS G12C and KRAS wildtype was quantified using a HTRF nucleotide exchange assay. Recombinant human KRAS protein (5 nM; aa1-188 KRAS WT or KRAS containing the G12C amino acid substitution, an N-terminal 6×His-tag and leader sequence), and 2 nM Europium-labeled anti-6×His antibody were mixed in assay buffer (10 mM HEPES pH7.3, 75 mM NaCl, 5 mM MgCl2, 0.05% BSA, 0.0025% NP-40 and 100 mM KF) with various concentrations of compound in a 384-well plate and a volume of 5 μL. After a 180 minute incubation at room temperature, 5 μl of 200 nM EDA-GTP-DY647P1 diluted in assay buffer was added to the plate. Following 30-minute incubation at room temperature, time-resolved fluorescence was measured on a PerkinElmer Envision plate reader. DMSO (0.3%) and unlabeled GDP (1 μM) or equivalent tool compound were used to generate the Max and Min assay signals, respectively. Data was analysed using a four-parameter logistic model to calculate IC50 values, with at least two independent replicates were performed for each compound.
Work on `C=CC(=O)N1CC2(CC(c3nc(-c4ccc5c(cnn5C)c4)c(-c4cc(C#N)cc5[nH]ncc45)n3C)C2)C1` [Example 40, 4-[3-methyl-5-(1-methylindazol-5-yl)-2-(2-prop-2-enoyl-2-azaspiro[3.3]heptan-6-yl)imidazol-4-yl]-1H-indazole-6-carbonitrile] yielded an IC50 of 1000 to 10000 nM.
`C=CC(=O)N1CC2(CC(c3nc(-c4cccnc4)c(-c4c(C)ccc5[nH]ncc45)n3C)C2)C1` [Example 3, 1-[6-[1-methyl-5-(5-methyl-1H-indazol-4-yl)-4-(3-pyridyl)imidazol-2-yl]-2-azaspiro[3.3]heptan-2-yl]prop-2-en-1-one] showed an IC50 of at least 10000 nM.
Work on `C=CC(=O)N1CC2(CC(c3nc(-c4cccc(N5CCOCC5)c4)c(-c4c(C)ccc5[nH]ncc45)n3C)C2)C1` [Example 6, 1-[6-[1-methyl-5-(5-methyl-1H-indazol-4-yl)-4-(3-morpholinophenyl)imidazol-2-yl]-2-azaspiro[3.3]heptan-2-yl]prop-2-en-1-one] yielded an IC50 of 1000 to 10000 nM.
`C=CC(=O)N1CC2(CC(c3nc(-c4ccc(CN5CCN(C)CC5)cc4)c(-c4cc(O)cc5ccccc45)n3C)C2)C1` [Example 31, 1-[6-[5-(3-hydroxy-1-naphthyl)-1-methyl-4-[4-[(4-methylpiperazin-1-yl)methyl]phenyl]imidazol-2-yl]-2-azaspiro[3.3]heptan-2-yl]prop-2-en-1-one] showed an IC50 of at most 1000 nM.
Work on `C=CC(=O)N1CC2(CC(c3nc(-c4ccc(OC)cc4F)c(-c4c(C)ccc5[nH]ncc45)n3C)C2)C1` [Example 4, 1-[6-[4-(2-fluoro-4-methoxy-phenyl)-1-methyl-5-(5-methyl-1H-indazol-4-yl)imidazol-2-yl]-2-azaspiro[3.3]heptan-2-yl]prop-2-en-1-one] yielded an IC50 of 1000 to 10000 nM.
`C=CC(=O)N1CC2(CC(c3nc(-c4ccc5nn(C)cc5c4)c(-c4c(C)ccc5[nH]ncc45)n3C)C2)C1` [Example 14, 1-[6-[1-methyl-4-(2-methylindazol-5-yl)-5-(5-methyl-1H-indazol-4-yl)imidazol-2-yl]-2-azaspiro[3.3]heptan-2-yl]prop-2-en-1-one] gave an IC50 of at most 1000 nM.
`C=CC(=O)N1CC2(CC(c3nc(-c4ccc5c(cnn5C)c4)c(-c4c(C)ccc5[nH]ncc45)n3C)C2)C1` [Example 1, 1-[6-[1-methyl-4-(1-methylindazol-5-yl)-5-(5-methyl-1H-indazol-4-yl)imidazol-2-yl]-2-azaspiro[3.3]heptan-2-yl]prop-2-en-1-one] gave an IC50 of at most 1000 nM.
Work on `C=CC(=O)N1CC2(CC(c3nc(-c4ccc5c(cnn5C)c4)c(-c4c(C)c(C)cc5[nH]ncc45)n3C)C2)C1` [Example 38, 1-[6-[5-(5,6-dimethyl-1H-indazol-4-yl)-1-methyl-4-(1-methylindazol-5-yl)imidazol-2-yl]-2-azaspiro[3.3]heptan-2-yl]prop-2-en-1-one] yielded an IC50 of at most 1000 nM.
`C=CC(=O)N1CC2(CC(c3nc(-c4cnn(CCOC)c4)c(-c4c(C)ccc5[nH]ncc45)n3C)C2)C1` [Example 15, 1-[6-[4-[1-(2-methoxyethyl)pyrazol-4-yl]-1-methyl-5-(5-methyl-1H-indazol-4-yl)imidazol-2-yl]-2-azaspiro[3.3]heptan-2-yl]prop-2-en-1-one] showed an IC50 of at least 10000 nM.
Work on `C=CC(=O)N1CC2(CC(c3nc(-c4ccc5c(cnn5C)c4)c(-c4c(C)ccc5[nH]ncc45)n3CC)C2)C1` [Example 24, 1-[6-[1-ethyl-4-(1-methylindazol-5-yl)-5-(5-methyl-1H-indazol-4-yl)imidazol-2-yl]-2-azaspiro[3.3]heptan-2-yl]prop-2-en-1-one] yielded an IC50 of at most 1000 nM.
`C=CC(=O)N1CC2(CC(c3nc(-c4ccc5ocnc5c4)c(-c4c(C)ccc5[nH]ncc45)n3C)C2)C1` [Example 17, 1-[6-[4-(1,3-benzoxazol-5-yl)-1-methyl-5-(5-methyl-1H-indazol-4-yl)imidazol-2-yl]-2-azaspiro[3.3]heptan-2-yl]prop-2-en-1-one] was tested, and the IC50 was 1000 to 10000 nM.
Work on `C=CC(=O)N1CC2(CC(c3nc(-c4ccc5c(cnn5C)c4)c(-c4cc(Cl)cc5[nH]ncc45)n3C)C2)C1` [Example 41, 1-[6-[5-(6-chloro-1H-indazol-4-yl)-1-methyl-4-(1-methylindazol-5-yl)imidazol-2-yl]-2-azaspiro[3.3]heptan-2-yl]prop-2-en-1-one] yielded an IC50 of at most 1000 nM.
In the case of `C=CC(=O)N1CC2(CC(c3nc(-c4ccc5cnn(C)c5c4)c(-c4c(C)ccc5[nH]ncc45)n3C)C2)C1` [Example 7, 1-[6-[1-methyl-4-(1-methylindazol-6-yl)-5-(5-methyl-1H-indazol-4-yl)imidazol-2-yl]-2-azaspiro[3.3]heptan-2-yl]prop-2-en-1-one], the IC50 is reported as 1000 to 10000 nM.
Work on `C=CC(=O)N1CC2(CC(c3nc(-c4ccc5c(c4)nc(C)n5C)c(-c4c(C)ccc5[nH]ncc45)n3C)C2)C1` [Example 9, 1-[6-[4-(1,2-dimethylbenzimidazol-5-yl)-1-methyl-5-(5-methyl-1H-indazol-4-yl)imidazol-2-yl]-2-azaspiro[3.3]heptan-2-yl]prop-2-en-1-one] yielded an IC50 of 1000 to 10000 nM.
`C=CC(=O)N1CC2(CC(c3nc(-c4cnn(CCN5CCOCC5)c4)c(-c4c(C)ccc5[nH]ncc45)n3C)C2)C1` [Example 10, 1-[6-[1-methyl-5-(5-methyl-1H-indazol-4-yl)-4-[1-(2-morpholinoethyl)pyrazol-4-yl]imidazol-2-yl]-2-azaspiro[3.3]heptan-2-yl]prop-2-en-1-one] was tested, and the IC50 was at least 10000 nM.
Compound `C=CC(=O)N1CC2(CC(c3nc(-c4ccc5c(cnn5C)c4)c(-c4cccc5sc(N)c(C#N)c45)n3C)C2)C1` [Example 36, 2-amino-4-[3-methyl-5-(1-methylindazol-5-yl)-2-(2-prop-2-enoyl-2-azaspiro[3.3]heptan-6-yl)imidazol-4-yl]benzothiophene-3-carbonitrile] has an IC50 of 1000 to 10000 nM.
`C=CC(=O)N1CC2(CC(c3nc(-c4ccc(OCC(=O)N(C)C)cc4)c(-c4c(C)ccc5[nH]ncc45)n3C)C2)C1` [Example 19, N,N-dimethyl-2-[4-[1-methyl-5-(5-methyl-1H-indazol-4-yl)-2-(2-prop-2-enoyl-2-azaspiro[3.3]heptan-6-yl)imidazol-4-yl]phenoxy]acetamide] gave an IC50 of 1000 to 10000 nM.
With `C=CC(=O)N1CC2(CC(c3nc(-c4ccc(CN5CCOCC5)cc4)c(-c4cc(O)cc5ccccc45)n3C)C2)C1` [Example 30, 1-[6-[5-(3-hydroxy-1-naphthyl)-1-methyl-4-[4-(morpholinomethyl)phenyl]imidazol-2-yl]-2-azaspiro[3.3]heptan-2-yl]prop-2-en-1-one] the IC50 was at most 1000 nM.
`C=CC(=O)N1CC2(CC(c3nc(-c4ccc(-n5cnc(C6CC6)c5)cc4)c(-c4c(C)ccc5[nH]ncc45)n3C)C2)C1` [Example 8, 1-[6-[4-[4-(4-cyclopropylimidazol-1-yl)phenyl]-1-methyl-5-(5-methyl-1H-indazol-4-yl)imidazol-2-yl]-2-azaspiro[3.3]heptan-2-yl]prop-2-en-1-one] showed an IC50 of 1000 to 10000 nM.
`C=CC(=O)N1CC2(CC(c3nc(-c4ccc5nn(C)cc5c4)c(-c4cc(O)cc5ccccc45)n3C)C2)C1` [Example 28, 1-[6-[5-(3-hydroxy-1-naphthyl)-1-methyl-4-(2-methylindazol-5-yl)imidazol-2-yl]-2-azaspiro[3.3]heptan-2-yl]prop-2-en-1-one] was tested, and the IC50 was at most 1000 nM.
`C=CC(=O)N1CC2(CC(c3nc(-c4ccc(N5CCOCC5)cc4)c(-c4cc(O)cc5ccccc45)n3CC)C2)C1` [Example 33, 1-[6-[1-ethyl-5-(3-hydroxy-1-naphthyl)-4-(4-morpholinophenyl)imidazol-2-yl]-2-azaspiro[3.3]heptan-2-yl]prop-2-en-1-one] gave an IC50 of at most 1000 nM.
`C=CC(=O)N1CC2(CC(c3nc(-c4ccc(OCC(=O)N5CCOCC5)cc4)c(-c4c(C)ccc5[nH]ncc45)n3C)C2)C1` [Example 20, 1-[6-[1-methyl-5-(5-methyl-1H-indazol-4-yl)-4-[4-(2-morpholino-2-oxo-ethoxy)phenyl]imidazol-2-yl]-2-azaspiro[3.3]heptan-2-yl]prop-2-en-1-one] showed an IC50 of 1000 to 10000 nM.
`C=CC(=O)N1CC2(CC(c3nc(-c4ccc5c(cnn5C)c4C)c(-c4c(C)ccc5[nH]ncc45)n3C)C2)C1` [Example 11, 1-[6-[4-(1,4-dimethylindazol-5-yl)-1-methyl-5-(5-methyl-1H-indazol-4-yl)imidazol-2-yl]-2-azaspiro[3.3]heptan-2-yl]prop-2-en-1-one] gave an IC50 of 1000 to 10000 nM.
Compound `C=CC(=O)N1CC2(CC(c3nc(-c4ccc(C(=O)NCC(F)(F)F)c(OC)c4)c(-c4c(C)ccc5[nH]ncc45)n3C)C2)C1` [Example 23, 2-methoxy-4-[1-methyl-5-(5-methyl-1H-indazol-4-yl)-2-(2-prop-2-enoyl-2-azaspiro[3.3]heptan-6-yl)95midazole-4-yl]-N-(2,2,2-trifluoroethyl)benzamide] has an IC50 of 1000 to 10000 nM.
`C=CC(=O)N1CC2(CC(c3nc(-c4cn(C)nc4C)c(-c4c(C)ccc5[nH]ncc45)n3C)C2)C1` [Example 12, 1-[6-[4-(1,3-dimethylpyrazol-4-yl)-1-methyl-5-(5-methyl-1H-indazol-4-yl)imidazol-2-yl]-2-azaspiro[3.3]heptan-2-yl]prop-2-en-1-one] gave an IC50 of at least 10000 nM.
With `C=CC(=O)N1CC2(CC(c3nc(-c4ccc5c(c4)c(C)nn5C)c(-c4c(C)ccc5[nH]ncc45)n3C)C2)C1` [Example 16, 1-[6-[4-(1,3-dimethylindazol-5-yl)-1-methyl-5-(5-methyl-1H-indazol-4-yl)imidazol-2-yl]-2-azaspiro[3.3]heptan-2-yl]prop-2-en-1-one] the IC50 was 1000 to 10000 nM.
